The source of these data is patent US12036262B2, “Edible plant-derived nanoparticles for regulation of gut microbiota” (University of Louisville Research Foundation, Inc., priority 2017, dated 2024).

Data set [1] has as its system SpaC. Put plainly: Immunogold labeling of LGG pili and TEM. Type of data set: cell-based, Lactobacillus rhamnosus. The following applies: compared with PBS or scrambled miRNA. The method, then: Immunogold Labeling of LGG Pili and TEM. To visualize LGG pili via transmission electron microscopy (TEM), LGG cultures were grown overnight (OD600<1.0) and washed once with PBS. Formvar-carbon-coated copper grids (Electron Microscopy Sciences, Hatfield, Pennsylvania, United States of America) first were floated for 1 hour on droplets of the diluted LGG at 10^7/mL in PBS, washed several times with 0.02 M glycine in PBS, and then treated with a blocking solution of 1% bovine serum albumin (BSA) in PBS. The grids were then floated for 1 hour on droplets of anti-SpaC serum (1:100) in blocking solution. After a wash with 0.1% BSA in PBS, the grids were incubated for 20 minutes with protein A-conjugated 10-nm-diameter gold particles (Cytodiagnostics, Burlington, Ontario, Canada) diluted 1:55 in blocking solution. After one wash in PBS, the grids were fixed with 1% glutaraldehyde, washed with distilled water, and then stained with 1% ammonium molybdate on the surface of the EM grid. After excess ammonium molybdate was removed from the grid, images were visualized using a Thermo-Fisher TEM Tecnai Spirit at 80 kV, and images were collected with an AMT XR60 digital camera.

Data set [2] has as its system SpaC. The data set is described as follows: SpaC expression in LGG (qPCR, Western blotting). In kind it is cell-based, Lactobacillus rhamnosus. The following applies: compared with scrambled miRNA. Here is the method:
Quantitative Real-Time PCR for RNA Expression. The quantity of mature miRNAs was determined with quantitative real-time PCR (qPCR) using a miScript II RT kit (QIAGEN Inc., Germantown, Maryland, United States of America) and miScript SYBR Green PCR Kit (QIAGEN) with QIAGEN 3′ universal primers. For analysis of gene mRNA expression, 1 μg of total RNA was reverse transcribed using SuperScript III reverse transcriptase (Invitrogen, Waltham, Massachusetts, United States of America), and quantitation was performed using SsoAdvanced™ Universal SYBR Green Supermix (Bio-Rad Laboratories, Inc., Hercules, California, United States of America) and the listed primers (Table 1) with SsoAdvanced™ Universal SYBR Green Supermix (Bio-Rad). qPCR was performed using a Bio-Rad CFX96 qPCR System with each reaction run in triplicate. Analysis and fold-changes were determined using the comparative threshold cycle (Ct) method. Changes in miRNA or mRNA expression were calculated as fold-change.
Western Blotting. LGG cells were treated as indicated in each individual Figure and harvested from 100-350 ml cultures by centrifugation at 5,000×g for 10 minutes. […] After the Alexa Fluor-647 (Invitrogen) conjugated secondary antibody incubation, the bands were visualized and analyzed using an Odyssey Imager (LI-COR, Lincoln, Nebraska, United States of America). […]
A general note: Quantitative PCR measures a nucleic acid by following its amplification.

The test system of a further data set is MC-38 cells. The data set is described as follows: Migration assay, intracellular LGG. In kind it is cell-based, C57BL/6 murine. The method, then:
Cells. C57BL/6 murine colon adenocarcinoma MC-38 cells (gender unknown; Kerafast, Inc., Boston, Massachusetts, United States of America) or human epithelial colorectal adenocarcinoma Caco-2 cells (American Type Culture Collection, ATCC®, Manassas, Virginia, United States of America) were grown in tissue culture plates with Dulbecco's modified Eagle's medium (DMEM) supplemented with 10% heat-inactivated fetal bovine serum (FBS), 100 U/mL penicillin, and 100 μg/mL streptomycin at 37° C. in a 5% CO2 atmosphere.
Migration Assays. MC-38 or Caco-2 cells (ATCC) were seeded at 1×10^5 cells per well in a 12-well tissue culture plate with Dulbecco's modified Eagle's medium (DMEM) without antibiotics. The cells were inoculated with 1×10^7 bacteria per well for 90 minutes at 37° C. in a 5% CO2 atmosphere to allow bacterial adhesion and entry. The number of intracellular bacteria was quantified as described in Zhang & Wang, 1998.

As to “ath-miR167a: GELN miRNA, SEQ ID NO: 9 (UGAAGCUGCCAGCAUGAUCUA; expressed or natural sequence)”, the “SpaC protein on pili of LGG (TEM)” value with SpaC [1] was “much less SpaC protein could be detected on pili”. In addition, the “SpaC expression in LGG” value with SpaC [2] is “significantly down-regulated”. In the data set on MC-38 cells, the “LGG entry into MC38 cells” value is given as “could prevent the entry of LGG into gut epithelial cells”.
